Source: patent US20090042993A1, “IDENTIFICATION OF NOVEL POST-TRANSLATIONAL PROTEIN MODIFICATIONS” (priority 2007, published 2009)

What was measured:
[1] = test system: acetyl-CoA:lysine acetyltransferase activity in ER vesicles; assay: Membrane acetyltransferase activity, in vitro acetylation of BACE1-myc by ER vesicles; assay type: biochemical, Chinese Hamster; conditions: vesicles from control or ceramide-treated cells, 0.2% Triton X-100, 30° C.
Source text: Intact vesicles from the endoplasmic reticulum (ER) and the Golgi apparatus were purified on a 10-34% Iodixanol (OptiPrep; Axis-Shield, Norway) continuous gradient as described (Puglielli et al., 2001, Nat. Cell Biol. 3: 905-912). The complete migration of subcellular markers in a typical gradient is shown in Costantini et al., 2006, EMBO J. 25: 1997-2006; Puglielli et al., 2001, Nat. Cell Biol. 3: 905-912. Fractions enriched in ER and Golgi markers (also called ER or Golgi vesicles herein) were separated, pooled together, and resuspended in isotonic/cryogenic buffer (0.25 M sucrose and 10 mM Tris-HCl, pH 7.4) in the presence of protease inhibitors (Roche). Latency of ER and Golgi vesicles was determined with the glucose-6-phosphatase (Clairmont et al., 1992, J. Biol. Chem. 267: 3983-3900) and the sialyl-transferase (Puglielli and Hirschberg, 1999, J. Biol. Chem. 274: 35596-35600) methods, respectively. […]
The reaction was stopped by adding 200 μl of ice-cold buffer and immediate immersion in ice; BACE1 was then immunoprecipitated and counted on a liquid scintillation counter. […]
FIG. 6 illustrates how acetyltransferase and deacetylase activities exist in the lumen of ER and Golgi apparatus, respectively. […] The reaction was stopped by lowering the temperature; BACE1 was then purified again and analyzed on a scintillation liquid counter. […]

AT-1 = AT-1 mRNA by real-time quantitative PCR in SH-SY5Y cells; assay type: cell-based, human; conditions: C6-cer 10 μM
Experimental: FIG. 15(A): SH-SY5Y cells were treated with ceramide (C6-cer; 10 μM) prior to real-time quantitative PCR. Treatment was performed as previously described (Costantini et al., 2007; Costantini et al., 2005; Puglielli et al., 2003). Results are expressed as percent of control (n=5)±S.D. of control (no treatment). Asterisk (*) indicates statistical significance. […] FIG. 15(B): a cDNA library (frontal cortex) of late-onset AD (n=5 different subjects) and age-matched controls (n=5 different subjects) was analyzed by quantitative real-time PCR. Results are expressed as percent of age-matched controls±S.D. Asterisk (*) indicates statistical significance.

in vitro acetylation of BACE1 by ER membrane vesicles [1]: no apparent difference
SMILES: CCCCCCCCCCCCC/C=C/[C@@H](O)[C@H](CO)NC(=O)CCCCC [ceramide, C6-ceramide]
AT-1 mRNA level (AT-1): upregulated
